Experimental data: PubChem BioAssay (NCI)
Where “and” joins values, the source holds several entries; their conditions need not be identical. Equal entries are not always repeated.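 A five-concentration, 48-hour dose response in 96-well plates underlies each endpoint, interpolated linearly between surrounding concentrations. At the GI50, growth is halved. Definition used: TGI = concentration required for complete inhibition of growth.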

Legend:
Assay in all cases: NCI-60 cell line screen, 48 h
[1] = system: ACHN renal
[2] = system: NCI-H23 lung
[3] = system: MDA-MB-435
[4] = system: OVCAR-4 ovarian
[5] = system: DU-145 prostate
[6] = system: OVCAR-3 ovarian
[7] = system: CCRF-CEM leukemia
[8] = system: SF-268 CNS
[9] = system: T-47D breast
[10] = system: EKVX NSCLC

Row | SMILES | GI50 [1] | TGI [1] [µM] | GI50 [2] | TGI [2] [µM] | GI50 [3] | TGI [3] | GI50 [4] | TGI [4] [µM] | GI50 [5] | TGI [5] [µM] | GI50 [6] | TGI [6] | GI50 [7] | TGI [7] [µM] | GI50 [8] | TGI [8] [µM] | GI50 [9] [µM] | TGI [9] [µM] | GI50 [10] | TGI [10] [µM]
1 | C(=Nc1nc(SCc2ccccc2)nc2[nH]ncc12)c1cccs1 | 43600 nM | > 100 | 66400 nM | > 100 | 41600 nM | > 100 µM | > 100000 nM | > 100 | 43 µM | > 100 | > 100000 nM | > 100 µM | 37200 nM | > 100 | 30.4 µM | > 100 | 21.9 | 52.8 | 34.5 µM | > 100
2 | Cn1c(=O)c2nc3sc4c(n3c2n(C)c1=O)C(=O)c1ccccc1C4=O | – | > 54.7 | – | > 75.1 | – | > 76 µM | – | > 81.4 | – | > 100 | – | > 50.6 µM | – | > 50.3 | – | > 100 | – | 23.6 | – | > 100
3 | C=CCN(CC=C)C(=O)c1cc(C)nc2c1c(=O)n(-c1ccccc1)c(=O)n2CCCN1CCN(c2ccccc2OC)CC1 | > 50000 nM | > 50 | > 50000 nM | > 50 | > 50000 nM | > 50 µM | > 50000 nM | > 50 | > 50 µM | > 50 | > 50000 nM | > 50 µM | > 50000 nM | > 50 | > 50 µM | > 50 | > 50 | > 50 | > 50 µM | > 50
4 | CC[C@H](C)[C@H](NC(=O)[C@H]1CCCCN1C)C(=O)N(C)[C@H](C[C@@H](OC(C)=O)c1nc(C(=O)NC23CC(C(=O)OC)(C2)C3)cs1)C(C)C | 8.06 nM and 3.25 nM | > 32.5 | 5.11 nM and 3.25 nM | > 32.5 | 0.137 nM and < 3.25 nM | 0.00104 µM and < 0.00325 µM | 42.4 nM and 72.7 nM | > 32.5 | 0.000449 µM and 0.00325 µM | > 32.5 | 0.256 nM and < 3.25 nM | 0.0158 µM and < 0.00325 µM | 0.402 nM and 3.25 nM | 1.47 | 0.000937 µM and 0.00325 µM | > 32.5 | 0.000499 | – | 0.0475 µM and 0.0175 µM | > 32.5
5 | Cc1cc(Cl)nc(N(CCNc2ccnc3cc(Cl)ccc23)Cc2ccco2)n1 | 1710 nM | 3.4 | 2570 nM | 9.65 | 1760 nM | 3.4 µM | 1670 nM | 3.38 | 1.9 µM | 3.8 | 1750 nM | 3.32 µM | 1920 nM | 5.04 | 3.22 µM | 13.2 | 1.66 | 3.61 | 2.68 µM | 12.1
6 | CC(=O)Oc1c(C(=O)[O-])cc(C(C)C)cc1C(C)C.CC(=O)Oc1c(C(=O)[O-])cc(C(C)C)cc1C(C)C.CC(=O)Oc1c(C(=O)[O-])cc(C(C)C)cc1C(C)C.CC(=O)Oc1c(C(=O)[O-])cc(C(C)C)cc1C(C)C.[Cu+2].[Cu+2] | 75200 nM | > 100 | 20100 nM | 52.7 | 3180 nM | 9.16 µM | 42900 nM | 97.1 | 34.2 µM | > 100 | 27300 nM | 65.9 µM | 20500 nM | 53.7 | 38.7 µM | > 100 | 52 | > 100 | 37.5 µM | 73.2
7 | CN1CCN(c2c(F)cc(NC3=C(Cl)C(=O)c4ncccc4C3=O)cc2F)CC1 | 1610 nM | 2.96 | 11800 nM | 32 | 1840 nM | 3.62 µM | 1330 nM | 2.66 | 12.7 µM | 26.2 | 303 nM | 1.37 µM | 2240 nM | 22 | 14.1 µM | 28.3 | 1.95 | 5.04 | 14.9 µM | 33.4
8 | O=C(c1cccs1)c1c(C(F)(F)F)n([O-])c2cc(Cl)c(Cl)cc2[n+]1=O | 423 nM | 0.853 | 919 nM | 2.37 | 1500 nM | 3.12 µM | 1970 nM | 4.25 | 0.872 µM | 2.68 | 668 nM | 1.82 µM | < 38.7 nM | 0.0617 | 1.03 µM | 2.45 | 2.18 | 4.94 | 2.11 µM | 4.04
9 | CCCCCC(=O)O[C@]1(C(C)=O)CCC2C3CCC4=CC(=O)CC[C@]4(C)C3CC[C@@]21C (some centres undefined) | 3000 nM | 11.6 | 2460 nM | 9.97 | 3250 nM | 13.1 µM | 2030 nM | 11.6 | 3.56 µM | 13.4 | 1900 nM | 3.9 µM | 2300 nM | 5.83 | 3.46 µM | 18 | 3.77 | 25.7 | 2.91 µM | 20.2
10 | CCO/C=C1\SC(=S)N(c2ccc(OCC)cc2)C1=O | – | > 100 | – | > 100 | – | > 100 µM | – | > 100 | – | > 100 | – | > 100 µM | – | > 100 | – | > 100 | – | > 100 | – | > 100
11 | CCCCS(=O)c1sc2nc(-c3cccs3)cc(-c3ccccc3)c2c1N (centres undefined) | 9100 nM | > 95.3 | 19000 nM | > 100 | 17300 nM | 99.7 µM | 13500 nM | > 100 | 30.4 µM | > 100 | 14300 nM | > 100 µM | 6710 nM | > 84.8 | 23.3 µM | > 100 | 5.77 | 46.7 | 9.48 µM | > 100
12 | O=C(Nc1ccc(OC(F)(F)Cl)cc1)c1cnc(N2CC[C@@H](O)C2)c(-c2ccn[nH]2)c1 | 5030 nM | 28.3 | 13600 nM | 33.5 | 7300 nM | 21.7 µM | 7070 nM | 43.5 | 13.2 µM | 43.3 | 15000 nM | 41.4 µM | 11300 nM | 43.2 | 15.4 µM | 39.2 | 6.12 | 46.7 | 8.63 µM | 28.7
13 | N#CC(C#N)=C/C=C(\Sc1ccc(Cl)cc1)c1ccc(F)cc1 | 1520 nM | > 27.7 | 528 nM | 2.05 | 810 nM | 2.91 µM | 19500 nM | 60.3 | 0.525 µM | > 33.6 | 310 nM | 2.6 µM | 17.7 nM | > 100 | 2.46 µM | 18.8 | 13.3 | > 71.6 | 15.7 µM | 52.5
